Test results taken from paper PMC7162859 (Scientific Reports, 2020).
Read-outs that look alike come from different tables or passages of the source.

Key:
[1] = GBM-bearing rats; for Fold increase in Kp over the Kp in normal brain of ispinesib treated group: 10 mg/kg ip, 2 hours; for increase in Kp when elacridar is co-administered with ispinesib: vs ispinesib alone
Experimental: (§3) Blood and brain (tumor-bearing) samples were collected at 2 hours post-dose, and whole brains were immediately flash frozen.
(§4) A fluorescence-guided punch biopsy technique (Supplementary Fig. S2) was developed and employed for isolation of tumor core, tumor rim (brain adjacent to tumor, BAT) and normal (non-tumor) brain regions from brain samples. Briefly, an acrylic adult rat brain matrix (WPI) was used to obtain thick coronal brain sections (1–2 mm thick) through the Td-Tomato labelled tumors. The tumor regions were identified by relative fluorescence signal (Nikon AZ100M microscope), and biospy punches with varying diameters were utilized to isolate tumor core (tumor region with fluorescence signal 5-fold or higher relative to background signal) and rim (region adjacent to tumor core with fluorescence signal 3 to 5-fold higher relative to background) (Supplementary Fig. S3). The samples from individual brains were pooled together for analysis of ispinesib concentrations by LC-MS/MS.
(§5) The tumor-bearing brain samples were harvested at 2 hours post dose (n = 9). Coronal sections that were 1-2 mm thick were obtained using an acrylic brain matrix, and a fluorescence microscopy guided punch biopsy method was utilized for the isolation of tumor core, tumor rim (brain adjacent to tumor, BAT) and normal (non-tumor) brain regions. The tumor core was identified as the tumor region with a fluorescence signal that was 5-fold or higher relative to the background signal. The tumor rim was defined as the region around the tumor core with a fluorescence signal 3 to 5-fold higher relative to the background signal. The brain tissue with a fluorescence signal similar to or lower than the background fluorescence was collected as the normal brain. The samples collected from each brain were pooled together, and ispinesib concentrations were determined using LC-MS/MS.

[2] = Brain distribution after single intraperitoneal dose in FVB wild-type, Bcrp1-/-, Mdr1a/b-/- and Mdr1a/b-/- Bcrp1-/- mice; type: in vivo, mouse (FVB); conditions: for DA (Distribution advantage) / concentration at 2 h / concentration at 6 h / Kp at 2 h / Kp at 6 h: 10 mg/kg i.p.; for concentration at 2 h / concentration at 6 h / Kp at 2 h / Kp at 6 h: FVB, mouse, 10 mg/kg; for concentration at 2 h / concentration at 6 h: intraperitoneal; for Kp at 2 h / Kp at 6 h: brain/plasma, ip, read-out: Kp brain (Cbrain/Cplasma)
Experimental: At 2 and 6 hours following administration of ispinesib, whole blood and brain samples were harvested, and blood samples were centrifuged for plasma separation. Additional details on the conduct of in vivo pharmacokinetic studies are described in the supplementary methods. The drug concentrations in all samples were measured by a specific and sensitive LC-MS/MS assay for ispinesib.
Kp=CbrainCplasma (Equation 4)
DA= Kp, knockoutKp, wildtype (Equation 5)

in vivo [3] = conditions: FVB, mouse, iv, 5 mg/kg
Experimental: A single intravenous bolus dose of 5 mg/kg ispinesib (vehicle: ethanol, Tween 80 and distilled water in volume ratio of 20:2.5:77.5) was administered to FVB wild-type and Mdr1a/b^−/− Bcrp1^−/− mice. This was followed by collection of whole blood and brain samples at 0.17, 0.5, 1, 2, 4, 8 and 15 hours post-dose, and blood samples were centrifuged to separate plasma for further analysis. […] The drug concentrations in all samples were measured by a specific and sensitive LC-MS/MS assay for ispinesib.
(§6) All dosing solutions were prepared on the day of the study. A serial sacrifice (destructive sampling) design was employed for sample collection. In all the pharmacokinetic studies conducted in non-tumor bearing FVB mice, the group size was 4 at each sampling time point (n = 4). At pre-determined time points, mice were euthanized using a carbon dioxide chamber. Blood was collected by cardiac puncture and transferred to sample tubes coated with heparin. The whole brain was isolated from skull and rinsed with ice-cold distilled water, and superficial meninges were removed by blotting with tissue paper. Plasma was separated by centrifugation of blood samples at 3500 rpm and 4°C for 15 minutes. […] All the samples were stored at -80°C, until further analysis. The concentrations of ispinesib in all the samples were analyzed by LC-MS/MS. Assuming a vascular volume of 1.4% in mouse brain ^5, the concentrations in brain were corrected for residual drug in brain vasculature.
Kp=AUCbrainAUCplasma (Equation 3)
Kp,uu=AUCbrain X fu, brain AUCplasma X fu, plasma (Equation 6)
The pharmacokinetic parameters from the concentration-time profiles in plasma and brain were determined by non-compartmental analysis (NCA) using Phoenix WinNonlin version 6.4 (Certara USA, Inc., Princeton, NJ). The AUCplasma and AUCbrain were calculated using the linear trapezoidal method. The standard errors around the mean of AUC was estimated by the sparse sampling module in WinNonlin ^6.

TP53(-/-) GBM cells = assay: In vitro cytotoxicity assay (CellTiter-Glo, 72 hours); type: cell-based, murine; conditions: for EC50: Mus musculus, 72 h, 72 hours, read-out: Ispinesib EC50
Experimental: (§1) TP53(−/−) and PTEN(−/−) cells were seeded into 96-well plates (pre-coated with fibronectin) at a density of 5,000 cells per well in DMEM media with 0.5% FBS, 1% nitrogen supplement, 10 ng/ml of FGF and 10 ng/ml of PDGFAA. Human GBM1A cells were seeded into 96 well plates (pre-coated with laminin) in DMEM media with 1% neuroPlex supplement, 20 ng/ml of EGF and 20 ng/ml of […]. After 24 hours (~70% confluency), cells were exposed to ispinesib (n = 10 wells per concentration) from 0.025–1000 nM with or without 500 nM elacridar co-treatment. The plates were incubated for 72 hours, cell viability measured using CellTiter-Glo ATP-based assay, and read on a luminometer. The dose-response data were fit to the Hill equation.
(§2) In vitro potency data was fitted to “log(inhibitor) vs. normalized response - variable slope” equation in GraphPad Prism version 6.04 (GraphPad, La Jolla, CA) to determine half-maximal effective concentration (EC50).

PTEN(-/-) GBM cells = assay: as above; type: cell-based, murine; conditions: for EC50: Mus musculus, 72 h, 72 hours, read-out: Ispinesib EC50
Experimental: as §1, §2

in vivo [4] = conditions: Sprague-Dawley, rat, ip, 10 mg/kg
Experimental: as §3, §4, §5

orthotopic GBM1A tumors = assay: Pharmacodynamics: monopolar spindle formation in orthotopic GBM1A tumors; type: in vivo, NSG mice; conditions: single ip dose 10 mg/kg each drug; 8 hours
Experimental: Female NSG mice were intracerebrally injected with 500,000 GBM1A cells at coordinates X = 1.5 mm, Y = 1.5 mm and Z = 2.5 mm relative to the bregma, and tumor growth was monitored by bioluminescence imaging. After 4 weeks (tumor size of about 2 × 10^9 photons/sec), animals were randomized to receive single ip dose of microemulsion vehicle, 10 mg/kg elacridar, 10 mg/kg ispinesib, or a combination of 10 mg/kg ispinesib and 10 mg/kg elacridar (n = 8–10). At 8 hours following treatment, mice were perfused and whole brains were isolated. The samples were processed for immunofluorescence by staining for tubulin with an alpha-tubulin antibody (Cell signaling, Cat#2125) and counter staining with DAPI for visualizing nuclei. Images were scanned and counted for cells with monopolar spindles.

[5] = FVB wild-type; for Fold increase in Kp: 10 mg/kg i.p. ispinesib with or without 10 mg/kg i.p. elacridar; for increase of brain-to-plasma concentration ratio / brain delivery of ispinesib with elacridar co-administration: 10 mg/kg ip ispinesib + 10 mg/kg elacridar vs ispinesib alone, 2 and 6 hours, 10 mg/kg
Experimental: Blood and brain specimens were harvested at 2 and 6 hours post-dose.
as §6

[6] = Rapid equilibrium dialysis for unbound fractions in mouse plasma and brain homogenate; type: in vitro ADME; conditions: FVB, 37 °C
Experimental: Rapid equilibrium dialysis was used to determine unbound fractions with modifications[48],[49] to manufacturer’s protocol (Thermo Fisher Scientific). Mouse plasma and brain homogenates (in 3 volumes of PBS, w/v) were spiked with 0.1 mg/mL ispinesib to obtain final concentrations of 1 µM. 300 µL of drug-spiked matrices were placed in donor chamber, and 500 µL of PBS was placed in receiver chamber of inserts (8 kDa MWCO), in triplicates. The base plate with inserts was incubated on Bioshaker at 37 °C and 1000 rpm for 4 hours. Ispinesib concentrations in samples were analyzed by liquid-chromatography tandem mass-spectrometry (LC-MS/MS).
The unbound fractions of ispinesib in plasma and brain were determined by using rapid equilibrium dialysis (RED) technique, with some alterations ^1,2 to manufacturer’s protocol (Thermo Fisher Scientific). […] RED experiments were initially conducted at 1, 2, 5 and 10 µM concentrations of ispinesib with 4 and 6 hour time points. […] Consequently, unbound fractions at 1 µM concentration and 4 hr time point were utilized for estimation of Kp,uu and free concentrations of ispinesib. […] The samples collected from the donor and receiver chambers after dialysis for 4 hours were stored at -80°C and analyzed for ispinesib concentrations by LC-MS/MS analysis. […]

[7] = 5 mg/kg iv bolus, Mdr1a/b-/- Bcrp1-/- mice

Q: For `Cc1ccc(C(=O)N(CCCN)[C@@H](c2nc3cc(Cl)ccc3c(=O)n2Cc2ccccc2)C(C)C)cc1` [Ispinesib, N-(3-aminopropyl)-N-[(1 R)-1-(3-benzyl-7-chloro-4-oxoquinazolin-2-yl)-2-methylpropyl]-4-methylbenzamide], which “Fold increase in Kp over the Kp in normal brain of ispinesib treated group” value (“Fold increase in Kp over the Kp” for short) ([1]; Normal brain) is on record?
A: 1

Q: And the “Fold increase in Kp over the Kp” value ([1]; Tumor core)?
A: 7

Q: And the “Fold increase in Kp over the Kp” value ([1]; Tumor rim)?
A: 2.5

Q: And the “increase in Kp when elacridar is co-administered with ispinesib” value ([1]; tumor core)?
A: 4 fold

Q: What about the “increase in Kp when elacridar is co-administered with ispinesib” value ([1]; tumor rim and normal brain regions) of the same compound?
A: approximately 10 fold

Q: What about the “DA (Distribution advantage)” value ([2]; 2 hrs, Bcrp1a/b-/-) of the same compound?
A: 1

Q: What about the “DA (Distribution advantage)” value ([2]; 2 hrs, Mdr1a/b-/-) of the same compound?
A: 3

Q: What about the “DA (Distribution advantage)” value ([2]; 2 hrs, Mdr1a/b-/- Bcrp1a/b-/-) of the same compound?
A: 28

Q: What about the “DA (Distribution advantage)” value ([2]; 2 hrs, Wild-type) of the same compound?
A: 1

Q: And the “DA (Distribution advantage)” value ([2]; 6 hrs, Bcrp1a/b-/-)?
A: 1

Q: What about the “DA (Distribution advantage)” value ([2]; 6 hrs, Mdr1a/b-/-) of the same compound?
A: 10

Q: And the “DA (Distribution advantage)” value ([2]; 6 hrs, Mdr1a/b-/- Bcrp1a/b-/-)?
A: 33

Q: And the “DA (Distribution advantage)” value ([2]; 6 hrs, Wild-type)?
A: 1

Q: And the concentration at 2 h ([2]; brain, 2 hrs, Bcrp1a/b-/-, read-out: Cbrain)?
A: 140 ± 20 ng/mL

Q: What about the concentration at 2 h ([2]; brain, 2 hrs, Mdr1a/b-/- Bcrp1a/b-/-, read-out: Cbrain) of the same compound?
A: 3770 ± 670 ng/mL

Q: What about the concentration at 2 h ([2]; brain, 2 hrs, Mdr1a/b-/-, read-out: Cbrain) of the same compound?
A: 580 ± 140 ng/mL

Q: And the concentration at 2 h ([2]; brain, 2 hrs, Wild-type, read-out: Cbrain)?
A: 180 ± 90 ng/mL

Q: What about the concentration at 6 h ([2]; brain, 6 hrs, Bcrp1a/b-/-, read-out: Cbrain) of the same compound?
A: 150 ± 30 ng/mL

Q: And the concentration at 6 h ([2]; brain, 6 hrs, Mdr1a/b-/- Bcrp1a/b-/-, read-out: Cbrain)?
A: 5590 ± 2850 ng/mL

Q: And the concentration at 6 h ([2]; brain, 6 hrs, Mdr1a/b-/-, read-out: Cbrain)?
A: 1100 ± 100 ng/mL

Q: And the concentration at 6 h ([2]; brain, 6 hrs, Wild-type, read-out: Cbrain)?
A: 140 ± 80 ng/mL

Q: What about the Kp at 2 h ([2]; 2 hrs, Bcrp1a/b-/-) of the same compound?
A: 0.08

Q: And the Kp at 2 h ([2]; 2 hrs, Mdr1a/b-/- Bcrp1a/b-/-)?
A: 3.07

Q: And the Kp at 2 h ([2]; 2 hrs, Mdr1a/b-/-)?
A: 0.35

Q: What about the Kp at 2 h ([2]; 2 hrs, Wild-type) of the same compound?
A: 0.11

Q: What about the Kp at 6 h ([2]; 6 hrs, Bcrp1a/b-/-) of the same compound?
A: 0.15

Q: And the Kp at 6 h ([2]; 6 hrs, Mdr1a/b-/- Bcrp1a/b-/-)?
A: 5.2

Q: What about the Kp at 6 h ([2]; 6 hrs, Mdr1a/b-/-) of the same compound?
A: 1.52

Q: What about the Kp at 6 h ([2]; 6 hrs, Wild-type) of the same compound?
A: 0.16

Q: And the concentration at 2 h ([2]; plasma, 2 hrs, Bcrp1a/b-/-, read-out: Cplasma)?
A: 1740 ± 420 ng/mL

Q: And the concentration at 2 h ([2]; plasma, 2 hrs, Mdr1a/b-/- Bcrp1a/b-/-, read-out: Cplasma)?
A: 1590 ± 1070 ng/mL

Q: What about the concentration at 2 h ([2]; plasma, 2 hrs, Mdr1a/b-/-, read-out: Cplasma) of the same compound?
A: 1750 ± 730 ng/mL

Q: And the concentration at 2 h ([2]; plasma, 2 hrs, Wild-type, read-out: Cplasma)?
A: 1610 ± 720 ng/mL

Q: What about the concentration at 6 h ([2]; plasma, 6 hrs, Bcrp1a/b-/-, read-out: Cplasma) of the same compound?
A: 1060 ± 400 ng/mL

Q: And the concentration at 6 h ([2]; plasma, 6 hrs, Mdr1a/b-/- Bcrp1a/b-/-, read-out: Cplasma)?
A: 1030 ± 210 ng/mL

Q: What about the concentration at 6 h ([2]; plasma, 6 hrs, Mdr1a/b-/-, read-out: Cplasma) of the same compound?
A: 870 ± 540 ng/mL

Q: And the concentration at 6 h ([2]; plasma, 6 hrs, Wild-type, read-out: Cplasma)?
A: 870 ± 540 ng/mL

Q: What about the “efflux transporter substrate status” value ([2]; from brain distribution in transporter-deleted mice) of the same compound?
A: a substrate for P-gp and Bcrp transporters

Q: What about the Kp uu (in vivo [3]; brain and plasma) of the same compound?
A: 0.02

Q: And the Kp uu (in vivo [3]; brain/plasma)?
A: 1

Q: What about the AUC(0-inf) (in vivo [3]; plasma) of the same compound?
A: 5800 ng·h/mL

Q: What about the AUC(0-t) (in vivo [3]; plasma) of the same compound?
A: 7500 ± 400 ng·h/mL

Q: What about the clearance (in vivo [3]; plasma) of the same compound?
A: 9.9 mL/min/kg

Q: What about the half-life (in vivo [3]; plasma) of the same compound?
A: 4.8 h

Q: What about the EC50 (TP53(-/-) GBM cells; [Elacridar] 0 nM) of the same compound?
A: 14.4 ± 1.2 nM

Q: What about the EC50 (TP53(-/-) GBM cells; [Elacridar] 500 nM) of the same compound?
A: 3.9 ± 0.5 nM

Q: And the “Hill Coefficient” value (TP53(-/-) GBM cells; [Elacridar] 0 nM)?
A: 0.6 ± 0.02

Q: What about the “Hill Coefficient” value (TP53(-/-) GBM cells; [Elacridar] 500 nM) of the same compound?
A: 0.4 ± 0.01

Q: And the EC50 (PTEN(-/-) GBM cells; [Elacridar] 0 nM)?
A: 10 ± 0.9 nM

Q: What about the EC50 (PTEN(-/-) GBM cells; [Elacridar] 500 nM) of the same compound?
A: 3.3 ± 0.4 nM

Q: What about the “Hill Coefficient” value (PTEN(-/-) GBM cells; [Elacridar] 0 nM) of the same compound?
A: 0.6 ± 0.02

Q: What about the “Hill Coefficient” value (PTEN(-/-) GBM cells; [Elacridar] 500 nM) of the same compound?
A: 0.4 ± 0.01

Q: What about the Kp at 2 h (in vivo [4]; normal brain) of the same compound?
A: 0.11 ± 0.09

Q: What about the concentration at 2 h (in vivo [4]; normal brain) of the same compound?
A: 60 ± 40 ng/mL

Q: What about the Kp at 2 h (in vivo [4]; tumor core) of the same compound?
A: 0.77 ± 0.55

Q: What about the concentration at 2 h (in vivo [4]; tumor core) of the same compound?
A: 380 ± 240 ng/mL

Q: What about the Kp at 2 h (in vivo [4]; tumor rim) of the same compound?
A: 0.27 ± 0.18

Q: And the concentration at 2 h (in vivo [4]; tumor rim)?
A: 150 ± 110 ng/mL

Q: What about the “monopolar spindles in tumor core (tubulin/DNA staining)” value (orthotopic GBM1A tumors) of the same compound?
A: occasional monopoles

Q: What about the “Fold increase in Kp” value ([5]; 2 hrs) of the same compound?
A: 1

Q: What about the “Fold increase in Kp” value ([5]; 6 hrs) of the same compound?
A: 1

Q: What about the “increase of brain-to-plasma concentration ratio / brain delivery of ispinesib with elacridar co-administration” value [5] of the same compound?
A: approximately 10 fold

Q: What about the “increase of brain-to-plasma concentration ratio / brain delivery of ispinesib with elacridar co-administration” value ([5]; listed as ispinesb) of the same compound?
A: 10 fold

Q: What about the fraction unbound at 4 h, 1 µM ([6]; mouse brain homogenate, corrected for dilution, read-out: percentage of unbound drug in brain) of the same compound?
A: 0.0005 ± 0.0002

Q: And the fraction unbound at 4 h, 1 µM ([6]; mouse plasma, read-out: percentage of unbound drug in plasma)?
A: 0.006 ± 0.001

Q: And the “predicted unbound concentrations in the brain compared with in vitro EC50 against GBM1A” value (5 mg/kg intravenous, FVB wild-type mice, from in vivo concentrations and fu)?
A: appreciably below the EC50

Q: And the “Kp, brain-to-plasma AUC ratio (total drug)” value [7]?
A: 12.12

Q: What about the “Kp,uu, unbound partition coefficient” value [7] of the same compound?
A: 1.01

Q: And the “Kp, brain-to-plasma AUC ratio (total drug)” value (5 mg/kg iv bolus, wild-type mice)?
A: 0.23
